Broadly, the EC50 is the midpoint of the concentration-response curve.

For the test, the target named is T1, Human STING (Homo sapiens, UniProt Q86WV6, G230A/H232R/R293Q/R71H).
T1 construct: host or cells: THP1-Dual cells, digitonin-permeabilized
T1 sequence (Q86WV6 whole entry R71H/G230A/H232R/R293Q): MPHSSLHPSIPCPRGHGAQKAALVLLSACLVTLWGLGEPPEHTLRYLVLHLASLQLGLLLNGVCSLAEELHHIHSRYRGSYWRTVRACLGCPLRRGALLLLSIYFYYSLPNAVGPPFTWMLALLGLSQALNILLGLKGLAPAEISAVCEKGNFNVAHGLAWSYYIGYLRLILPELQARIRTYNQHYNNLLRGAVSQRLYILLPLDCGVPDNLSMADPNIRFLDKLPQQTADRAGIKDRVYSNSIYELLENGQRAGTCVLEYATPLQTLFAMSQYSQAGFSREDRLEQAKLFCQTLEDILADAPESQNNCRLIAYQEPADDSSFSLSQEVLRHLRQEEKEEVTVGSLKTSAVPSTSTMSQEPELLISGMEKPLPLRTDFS
Briefly: Activation of human STING signaling in permeabilized THP1 cells, IRF3 induction. The class given is cell-based. The note with it: THP1-Dual cells permeabilized with digitonin buffer 30 minutes on ice, then 24 h in RPMI media. Here is the method:
To evaluate IRF3 reporter levels, cell culture supernatant (20 μl) from each incubated sample was added to QUANTI-Luc™ assay solution (Invivogen, 50 μl), and the luminescence was measured with a SpectraMax M3 spectrophotometer (Molecular Devices).
4×10^5 THP1-Dual™ cells (NF-κB-SEAP and IRF-Lucia luciferase Reporter Monocytes, Invivogen) were incubated with test Compounds in a 5-fold titration steps from […] in permeabilized buffer (50 mM HEPES pH 7.0, 100 mM KCl, 3 mM MgCl2, 85 mM sucrose, 0.2% BSA, 1 mM ATP, 0.1 mM GTP, 0.1 mM TTP, 1 μg/ml digitonin) for 30 minutes on ice. Cells were then washed and incubated in a fresh RPMI media with 10% FBS at 37° C. with 5% CO2 for 24 h. Cell culture supernatants from each sample were collected and NFkB and IRF3 were evaluated as above. Table 3 provides the results for IRF3 induction (“A” means <1 μM; “B” means ≥1 μM and <50 μM; “C” means ≥50 μM).
Compound `CCc1nc(C)oc1C(=O)Nc1nc2cc(C(N)=O)cc(OCCCO)c2n1C/C=C/Cn1c(NC(=O)c2cc(C)nn2CC)nc2cc(C(N)=O)cnc21` [Compound 111] showed an EC50 below 1000 nM. The result for `CCn1nc(C)cc1C(=O)Nc1nc2cc(C(N)=O)cnc2n1C/C=C/Cn1c(NC(=O)c2cc(C)nn2CC)nc2cc(C(N)=O)cc(OCCCC(=O)O)c21` [Compound 112] reads below 1000 nM; that for `CCn1nc(C)cc1C(=O)Nc1nc2cc(C(N)=O)cnc2n1C/C=C/Cn1c(NC(=O)c2oc(C)nc2C)nc2cc(C(N)=O)cc(OCCCO)c21` [Compound 113], 1000 to 50000 nM; that for `CCn1nc(C)cc1C(=O)Nc1nc2cccnc2n1C/C=C/Cn1c(NC(=O)c2cc(C)nn2CC)nc2cc(C(N)=O)cc(OCCCO)c21` [Compound 114], 1000 to 50000 nM.

Regarding `CCn1nc(C)cc1C(=O)/N=c1\sc2cc(C(=O)OC)cc(OC)c2n1C/C=C/Cn1c(NC(=O)c2cc(C)nn2CC)nc2cc(C(N)=O)cc(OCCCO)c21` [Compound 115], the EC50 is below 1000 nM. In turn, `CCn1nc(C)cc1C(=O)Nc1nc2cc(CN)cnc2n1C/C=C/Cn1c(NC(=O)c2cc(C)nn2CC)nc2cc(C(N)=O)cc(OCCCO)c21` [Compound 122] displayed an EC50 below 1000 nM. As for `CCn1nc(C)cc1C(=O)Nc1nc2cc(C(=O)OC)cnc2n1C/C=C/Cn1c(NC(=O)c2cc(C)nn2CC)nc2cc(C(N)=O)cc(OCCCO)c21` [Compound 123], the 50% effective concentration (EC50) was below 1000 nM. With `CCn1nc(C)cc1C(=O)Nc1nc2cc(CN(C)C)cnc2n1C/C=C/Cn1c(NC(=O)c2cc(C)nn2CC)nc2cc(C(N)=O)cc(OCCCO)c21` [Compound 125], the EC50 was below 1000 nM. `CCn1nc(C)cc1C(=O)Nc1nc2cc(CNC(C)=O)cnc2n1C/C=C/Cn1c(NC(=O)c2cc(C)nn2CC)nc2cc(C(N)=O)cc(OCCCO)c21` [Compound 126] returned an EC50 below 1000 nM. `CCc1nc(C)oc1C(=O)Nc1nc2cc(CN)cc(OC)c2n1C/C=C/Cn1c(NC(=O)c2oc(C)nc2CC)nc2cc(C(N)=O)cc(OCCCO)c21` [Compound 128]: the EC50 was below 1000 nM. Compound `CCn1nc(C)cc1C(=O)Nc1nc2cc(CN)cnc2n1C/C=C/Cn1c(NC(=O)c2cc(C)nn2CC)nc2cc(C(N)=O)cc(OC)c21` [Compound 129] showed an EC50 of 1000 to 50000 nM. As to `CCc1nc(C)oc1C(=O)Nc1nc2cc(CNC(C)=O)cc(OC)c2n1C/C=C/Cn1c(NC(=O)c2oc(C)nc2CC)nc2cc(C(N)=O)cc(OCCCO)c21` [Compound 130], the EC50 lay in the range of 1000 to 50000 nM. `CCc1nc(C)oc1C(=O)Nc1nc2cc(NC(C)=O)cc(OC)c2n1C/C=C/Cn1c(NC(=O)c2oc(C)nc2CC)nc2cc(C(N)=O)cc(OCCCO)c21` [Compound 131] registered an EC50 of 1000 to 50000 nM. `CCn1nc(C)cc1C(=O)Nc1nc2cc(CN(C)C)cnc2n1C/C=C/Cn1c(NC(=O)c2cc(C)nn2CC)nc2cc(C(N)=O)cc(OC)c21` [Compound 132] yielded an EC50 of 1000 to 50000 nM. Regarding `CCc1nc(C)oc1C(=O)Nc1nc2cc(CN(C)C)cc(OC)c2n1C/C=C/Cn1c(NC(=O)c2oc(C)nc2CC)nc2cc(C(N)=O)cc(OCCCO)c21` [Compound 133], the EC50 fell in the range of 1000 to 50000 nM. The result for `CCn1nc(C)cc1C(=O)Nc1nc2cc(N)cnc2n1C/C=C/Cn1c(NC(=O)c2cc(C)nn2CC)nc2cc(C(N)=O)cc(OC)c21` [Compound 134] reads below 1000 nM; that for `CCc1nc(C)oc1C(=O)Nc1nc2cc(N)cc(OC)c2n1C/C=C/Cn1c(NC(=O)c2oc(C)nc2CC)nc2cc(C(N)=O)cc(OCCCO)c21` [Compound 135], 1000 to 50000 nM. As to `CCc1nc(C)oc1C(=O)Nc1nc2cc(C(N)=O)cc(OC)c2n1C/C=C/Cn1c(NC(=O)c2cnc(C)o2)nc2cc(C(N)=O)cc(OCCCO)c21` [Compound 136], the EC50 was at least 50000 nM. As for `CCn1nc(C)cc1C(=O)Nc1nc2cc(CNC(C)=O)cnc2n1C/C=C/Cn1c(NC(=O)c2cc(C)nn2CC)nc2cc(C(N)=O)cc(OC)c21` [Compound 137], the EC50 is at least 50000 nM. As to `CCc1nc(C)oc1C(=O)Nc1nc2cc(C(N)=O)cc(OC)c2n1C/C=C/Cn1c(NC(=O)c2cnco2)nc2cc(C(N)=O)cc(OCCCO)c21` [Compound 138], the EC50 was at least 50000 nM.

`CCc1nc(C)oc1C(=O)Nc1nc2cc(C(N)=O)cc(O)c2n1C/C=C/Cn1c(NC(=O)c2oc(C)nc2CC)nc2cc(C(N)=O)cc(O)c21` [Compound 139] registered an EC50 of at least 50000 nM. As for `CCn1nc(C)cc1C(=O)/N=c1\sc2cc(C(N)=O)cnc2n1C/C=C/Cn1c(NC(=O)c2cc(C)nn2CC)nc2cc(C(N)=O)cc(OCCCC(=O)O)c21` [Compound 140], the EC50 was below 1000 nM.

In the case of `CCc1nc(C)sc1C(=O)Nc1nc2cc(C(N)=O)cc(OC)c2n1C/C=C/Cn1c(NC(=O)c2sc(C)nc2CC)nc2cc(C(N)=O)cc(OCCCC(=O)O)c21` [Compound 141], the EC50 fell in the range of 1000 to 50000 nM. As for `CCc1nc(C)oc1C(=O)/N=c1\sc2cc(C(N)=O)cnc2n1C/C=C/Cn1c(NC(=O)c2sc(C)nc2CC)nc2cc(C(N)=O)cc(OCCCO)c21` [Compound 142], the EC50 was below 1000 nM. In turn, `CCc1nc(C)oc1C(=O)Nc1nc2cc(C(N)=O)cnc2n1C/C=C/Cn1c(NC(=O)c2sc(C)nc2CC)nc2cc(C(N)=O)cc(OCCCO)c21` [Compound 143] registered an EC50 below 1000 nM. The compound `CCc1nc(C)sc1C(=O)Nc1nc2cc(C(N)=O)cnc2n1C/C=C/Cn1c(NC(=O)c2sc(C)nc2CC)nc2cc(C(N)=O)cc(OCCCO)c21` [Compound 144] had an EC50 of at least 50000 nM. With `CCc1nc(C)sc1C(=O)/N=c1\sc2cc(C(N)=O)cnc2n1C/C=C/Cn1c(NC(=O)c2sc(C)nc2CC)nc2cc(C(N)=O)cc(OCCCO)c21` [Compound 145], the EC50 is at least 50000 nM. Turning to `CCn1nc(C)cc1C(=O)/N=c1\sc2cc(C(N)=O)cc(OCCCO)c2n1C/C=C/Cn1c(NC(=O)c2cc(C)nn2CC)nc2cc(C(N)=O)cnc21` [Compound 147], the EC50 was in the range of 1000 to 50000 nM. As for `CCc1nc(C)oc1C(=O)Nc1nc2cc(C(N)=O)cc(OC)c2n1C/C=C/Cn1c(NC(=O)c2sc(C)nc2CC)nc2cc(C(N)=O)cc(OCCCC(=O)O)c21` [Compound 149], the EC50 is below 1000 nM.

In turn, `CCc1nc(C)oc1C(=O)Nc1nc2cc(C(N)=O)cc(OCCCC(=O)O)c2n1C/C=C/Cn1/c(=N/C(=O)c2cc(C)nn2CC)sc2cc(C(N)=O)cc(OC)c21` [Compound 150] displayed an EC50 below 1000 nM. Compound `CCc1nc(C)oc1C(=O)Nc1nc2cc(C(N)=O)cnc2n1C/C=C/Cn1c(NC(=O)c2sc(C)nc2CC)nc2cc(C(N)=O)cc(OCCCC(=O)O)c21` [Compound 151] showed an EC50 below 1000 nM. Compound `CCc1nc(C)oc1C(=O)/N=c1\sc2cc(C(N)=O)cnc2n1C/C=C/Cn1c(NC(=O)c2oc(C)nc2CC)nc2cc(C(N)=O)cc(OCCCC(=O)O)c21` [Compound 155] registered an EC50 below 1000 nM. `CCc1nc(C)sc1C(=O)Nc1nc2cc(C(N)=O)cc(OC)c2n1C/C=C/Cn1c(NC(=O)c2sc(C)nc2CC)nc2cc(C(N)=O)cc(OCCCO)c21` [compound 10] showed an EC50 below 1000 nM. Next, `CCc1nn(C)cc1C(=O)Nc1nc2cc(C(N)=O)cc(OC)c2n1C/C=C/Cn1c(NC(=O)c2cn(C)nc2CC)nc2cc(C(N)=O)cc(OCCCO)c21` [compound 11]: 1000 to 50000 nM; `COc1cc(C(N)=O)cc2nc(NC(=O)c3cc(C)no3)n(C/C=C/Cn3c(NC(=O)c4cc(C)no4)nc4cc(C(N)=O)cc(OCCCO)c43)c12` [compound 12]: 1000 to 50000 nM; `COc1cc(C(N)=O)cc2nc(NC(=O)c3nc(C)oc3C)n(C/C=C/Cn3c(NC(=O)c4nc(C)oc4C)nc4cc(C(N)=O)cc(OCCCO)c43)c12` [compound 13]: at least 50000 nM.

The values above are taken from US11155567B2, “Sting agonist compounds and methods of use” (Mersana Therapeutics, Inc., priority 2019, dated 2021).
